Data reported in PubChem BioAssay (NCI).
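The compound was tested at five concentrations on cells cultured in 96-well plates, with a 48-hour exposure period. At the TGI there is no net growth.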

Tests used:
Assay in all cases: inhibition of tumour cell growth, NCI panel, 48 h
[1] = test system: NCI-H460 lung
[2] = test system: HCT-15 colon
[3] = test system: SK-MEL-5 melanoma
[4] = test system: SNB-75 CNS
[5] = test system: M19-MEL melanoma
[6] = test system: SR leukemia
[7] = test system: COLO 205 colon
[8] = test system: KM12 colon
[9] = test system: DMS 273 small cell lung
[10] = test system: OVCAR-5 ovarian

| Compound | TGI [1] | TGI [2] | TGI [3] | TGI [4] | TGI [5] | TGI [6] | TGI [7] | TGI [8] | TGI [9] | TGI [10] |
| --- | --- | --- | --- | --- | --- | --- | --- | --- | --- | --- |
| COc1ccc(OC)c2c(=S)c3ccccc3[nH]c12 | > 85 µM | > 92.5 µM | 70.1 µM | > 100 µM | > 100 µM | > 100 µM | > 100 µM | > 100 µM | > 100 µM | > 100 µM |
| N#CC1C2CCC3(CC2CCN1C(=O)c1ccccc1)OCCO3 (stereo not given) | > 100 µM | > 100 µM | > 100 µM | > 100 µM | > 100 µM | > 100 µM | > 100 µM | > 100 µM | > 100 µM | > 100 µM |
| Cc1c2c(cc3c(=O)ccn(CCN(C)C)c13)c(=O)ccn2CCN(C)C | 14.1 µM | 24.1 µM | 34.4 µM | 25.6 µM | 30.2 µM | 37.6 µM | 24.7 µM | 13.9 µM | 16.3 µM | 42.3 µM |
| N#CC1CC2(C(=O)C1=O)c1ccccc1-c1ccccc12 (stereo not given) | > 100 µM | > 100 µM | > 100 µM | > 100 µM | > 100 µM | > 100 µM | > 100 µM | > 100 µM | > 100 µM | > 100 µM |
| C=C1C(=O)OC2CC(C)C3C=CC(=O)C3CC12 (stereo not given) | 9.5 µM | 4.16 µM | 6.04 µM | 18.5 µM | 9.19 µM | 4.53 µM | 3.34 µM | 18.9 µM | 12.2 µM | 10.4 µM |
| NS(=O)(=O)c1ccc(NC(=O)c2cccc3cc4ccccc4nc23)cc1 | > 100 µM | > 100 µM | > 100 µM | > 100 µM | > 100 µM | > 100 µM | > 100 µM | > 100 µM | > 100 µM | > 100 µM |
| CS(=O)(=O)OCCN(CCOS(C)(=O)=O)c1ccc(C=O)cc1 | 3.36 µM | 47.4 µM | 29.1 µM | 13.1 µM | 30.2 µM | 14.7 µM | 9.58 µM | 29.5 µM | 13.5 µM | 14.4 µM |
